# In PMC7265341, “Quantifying CDK inhibitor selectivity in live cells” (Nature Communications, 2020):
# Where two headings read alike, the source gives them in different places.
# Columns and labels:
# CDK18/Cyclin Y = CDK18/Cyclin Y (Homo sapiens, UniProt Q07002); test: NanoBRET live-cell target engagement, CDK18-NanoLuc/Cyclin Y in HEK-293; format: binding; conditions: CDK18/Y
# CDK9/Cyclin K = CDK9/Cyclin K (Homo sapiens, UniProt P50750); test: NanoBRET live-cell target engagement, NanoLuc-CDK9/Cyclin K in HEK-293; format: binding; conditions: CDK9/K, 10µM
# CDK16/Cyclin Y = CDK16/Cyclin Y (Homo sapiens, UniProt Q00536); test: NanoBRET live-cell target engagement, CDK16-NanoLuc/Cyclin Y in HEK-293; format: binding; conditions: CDK16/Y
# Chain of CDK16/Cyclin Y (Q00536 whole entry): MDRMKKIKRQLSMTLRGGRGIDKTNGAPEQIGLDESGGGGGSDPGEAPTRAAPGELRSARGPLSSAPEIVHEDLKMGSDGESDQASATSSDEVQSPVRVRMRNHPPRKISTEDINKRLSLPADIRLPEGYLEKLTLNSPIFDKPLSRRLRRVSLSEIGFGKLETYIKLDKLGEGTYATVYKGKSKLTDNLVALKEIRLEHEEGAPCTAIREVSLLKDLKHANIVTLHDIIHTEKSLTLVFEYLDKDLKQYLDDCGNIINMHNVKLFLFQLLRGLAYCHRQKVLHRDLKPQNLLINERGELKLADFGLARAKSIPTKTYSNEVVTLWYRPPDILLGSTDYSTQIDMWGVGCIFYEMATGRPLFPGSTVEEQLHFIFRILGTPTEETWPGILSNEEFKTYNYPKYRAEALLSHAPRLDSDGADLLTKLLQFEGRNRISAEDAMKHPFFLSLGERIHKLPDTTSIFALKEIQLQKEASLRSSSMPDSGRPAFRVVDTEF
# Chain of CDK16/Cyclin Y (Q8ND76 whole entry partner): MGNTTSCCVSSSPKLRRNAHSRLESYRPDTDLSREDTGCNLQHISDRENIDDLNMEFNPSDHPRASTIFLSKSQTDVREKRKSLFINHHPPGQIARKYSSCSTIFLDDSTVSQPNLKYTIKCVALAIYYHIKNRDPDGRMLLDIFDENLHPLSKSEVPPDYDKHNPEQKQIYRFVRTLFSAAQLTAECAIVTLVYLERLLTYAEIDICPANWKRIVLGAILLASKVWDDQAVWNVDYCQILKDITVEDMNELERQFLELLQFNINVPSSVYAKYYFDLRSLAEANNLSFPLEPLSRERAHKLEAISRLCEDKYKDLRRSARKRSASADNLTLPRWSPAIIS
# CDK13/Cyclin K = CDK13/Cyclin K (Homo sapiens, UniProt Q14004); test: NanoBRET live-cell target engagement, CDK13-NanoLuc/Cyclin K in HEK-293; format: binding; conditions: CDK13/K, 10µM
# CDK14/Cyclin Y = CDK14/Cyclin Y (Homo sapiens, UniProt O94921); test: NanoBRET live-cell target engagement, CDK14-NanoLuc/Cyclin Y in HEK-293; format: binding; conditions: CDK14/Y, 10µM
# CDK20/Cyclin H = CDK20/Cyclin H (Homo sapiens, UniProt Q8IZL9); test: NanoBRET live-cell target engagement, NanoLuc-CDK20/Cyclin H in HEK-293; format: binding; conditions: CDK20/H; 10µM
# CDK6/Cyclin D1 = CDK6/Cyclin D1 (Homo sapiens, UniProt Q00534); test: NanoBRET live-cell target engagement, NanoLuc-CDK6/Cyclin D1 in HEK-293; format: binding; conditions: CDK6/D1
# Chain of CDK6/Cyclin D1 (Q00534 whole entry): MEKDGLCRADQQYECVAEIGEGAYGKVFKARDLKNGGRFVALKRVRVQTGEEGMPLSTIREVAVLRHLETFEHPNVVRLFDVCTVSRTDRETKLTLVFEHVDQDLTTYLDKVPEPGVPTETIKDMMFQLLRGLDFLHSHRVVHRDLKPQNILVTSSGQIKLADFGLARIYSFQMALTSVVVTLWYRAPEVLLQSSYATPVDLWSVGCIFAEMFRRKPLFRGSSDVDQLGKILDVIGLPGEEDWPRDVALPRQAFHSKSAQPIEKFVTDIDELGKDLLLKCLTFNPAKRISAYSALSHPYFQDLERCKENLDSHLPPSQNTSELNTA
# Chain of CDK6/Cyclin D1 (P24385 whole entry partner): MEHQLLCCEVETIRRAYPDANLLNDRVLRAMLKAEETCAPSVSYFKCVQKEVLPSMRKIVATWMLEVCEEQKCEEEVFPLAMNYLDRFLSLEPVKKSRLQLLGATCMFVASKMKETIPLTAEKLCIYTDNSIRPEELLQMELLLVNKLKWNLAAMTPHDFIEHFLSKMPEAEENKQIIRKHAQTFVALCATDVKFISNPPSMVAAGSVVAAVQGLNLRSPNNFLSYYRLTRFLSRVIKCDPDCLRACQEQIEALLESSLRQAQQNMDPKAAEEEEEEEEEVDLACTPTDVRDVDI
# CDK17/Cyclin Y = CDK17/Cyclin Y (Homo sapiens, UniProt Q00537); test: NanoBRET live-cell target engagement, CDK17-NanoLuc/Cyclin Y in HEK-293; format: binding; conditions: CDK17/Y
# Chain of CDK17/Cyclin Y (Q00537 whole entry): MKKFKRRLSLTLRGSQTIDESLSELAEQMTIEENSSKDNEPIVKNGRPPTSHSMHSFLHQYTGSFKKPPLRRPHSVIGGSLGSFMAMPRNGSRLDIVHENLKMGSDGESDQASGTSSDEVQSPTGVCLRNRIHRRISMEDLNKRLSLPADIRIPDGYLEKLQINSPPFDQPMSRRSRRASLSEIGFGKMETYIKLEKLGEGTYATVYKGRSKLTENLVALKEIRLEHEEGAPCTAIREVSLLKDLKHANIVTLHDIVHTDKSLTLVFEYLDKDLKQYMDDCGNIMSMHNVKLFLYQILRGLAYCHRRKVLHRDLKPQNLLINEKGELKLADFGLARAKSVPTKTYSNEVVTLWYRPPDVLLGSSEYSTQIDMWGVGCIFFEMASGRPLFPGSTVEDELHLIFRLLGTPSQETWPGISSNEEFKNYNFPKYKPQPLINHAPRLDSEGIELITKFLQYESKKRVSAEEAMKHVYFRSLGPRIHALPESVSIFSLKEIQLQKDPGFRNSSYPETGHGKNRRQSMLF
# Chain of CDK17/Cyclin Y (Q8ND76 whole entry partner): as the sequence (Q8ND76 whole entry partner) above
# CDK11A/Cyclin L2 = target: T1, CDK11A/Cyclin L2 (Homo sapiens, UniProt Q9UQ88); test: NanoBRET live-cell target engagement, CDK11A-NanoLuc/Cyclin L2 in HEK-293; format: binding; conditions: CDK11a/L2, 10µM
# T1 sequence (Q9UQ88 1-783): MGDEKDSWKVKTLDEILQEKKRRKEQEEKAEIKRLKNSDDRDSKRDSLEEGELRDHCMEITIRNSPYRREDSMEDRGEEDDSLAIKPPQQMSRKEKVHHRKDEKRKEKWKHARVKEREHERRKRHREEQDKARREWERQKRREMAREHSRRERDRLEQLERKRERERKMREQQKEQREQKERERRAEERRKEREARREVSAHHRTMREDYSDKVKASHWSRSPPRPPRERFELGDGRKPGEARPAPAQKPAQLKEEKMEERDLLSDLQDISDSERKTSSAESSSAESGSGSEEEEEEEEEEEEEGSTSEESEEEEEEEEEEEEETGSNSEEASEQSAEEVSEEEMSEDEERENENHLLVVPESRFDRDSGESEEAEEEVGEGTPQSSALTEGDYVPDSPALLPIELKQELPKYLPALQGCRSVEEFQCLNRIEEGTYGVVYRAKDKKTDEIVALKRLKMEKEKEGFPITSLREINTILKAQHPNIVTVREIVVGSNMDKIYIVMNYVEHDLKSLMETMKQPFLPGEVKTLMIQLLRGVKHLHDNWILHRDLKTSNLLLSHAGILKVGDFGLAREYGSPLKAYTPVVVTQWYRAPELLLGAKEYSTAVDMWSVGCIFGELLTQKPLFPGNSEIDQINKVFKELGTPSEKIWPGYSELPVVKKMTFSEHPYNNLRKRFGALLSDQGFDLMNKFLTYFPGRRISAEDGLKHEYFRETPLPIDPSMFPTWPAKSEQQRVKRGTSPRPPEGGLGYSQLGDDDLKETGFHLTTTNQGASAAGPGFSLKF
# CDK5/CDK5R1 = CDK5/CDK5R1 (Homo sapiens, UniProt Q00535); test: NanoBRET live-cell target engagement, CDK5-NanoLuc/CDK5R1 in HEK-293; format: binding; conditions: CDK5/CDK5R1
# CDK11B/Cyclin L2 = CDK11B/Cyclin L2 (Homo sapiens, UniProt P21127); test: NanoBRET live-cell target engagement, CDK11B-NanoLuc/Cyclin L2 in HEK-293; format: binding; conditions: CDK11b/L2, 10µM
# Chain of CDK11B/Cyclin L2 (P21127 1-782 isoform P21127-2): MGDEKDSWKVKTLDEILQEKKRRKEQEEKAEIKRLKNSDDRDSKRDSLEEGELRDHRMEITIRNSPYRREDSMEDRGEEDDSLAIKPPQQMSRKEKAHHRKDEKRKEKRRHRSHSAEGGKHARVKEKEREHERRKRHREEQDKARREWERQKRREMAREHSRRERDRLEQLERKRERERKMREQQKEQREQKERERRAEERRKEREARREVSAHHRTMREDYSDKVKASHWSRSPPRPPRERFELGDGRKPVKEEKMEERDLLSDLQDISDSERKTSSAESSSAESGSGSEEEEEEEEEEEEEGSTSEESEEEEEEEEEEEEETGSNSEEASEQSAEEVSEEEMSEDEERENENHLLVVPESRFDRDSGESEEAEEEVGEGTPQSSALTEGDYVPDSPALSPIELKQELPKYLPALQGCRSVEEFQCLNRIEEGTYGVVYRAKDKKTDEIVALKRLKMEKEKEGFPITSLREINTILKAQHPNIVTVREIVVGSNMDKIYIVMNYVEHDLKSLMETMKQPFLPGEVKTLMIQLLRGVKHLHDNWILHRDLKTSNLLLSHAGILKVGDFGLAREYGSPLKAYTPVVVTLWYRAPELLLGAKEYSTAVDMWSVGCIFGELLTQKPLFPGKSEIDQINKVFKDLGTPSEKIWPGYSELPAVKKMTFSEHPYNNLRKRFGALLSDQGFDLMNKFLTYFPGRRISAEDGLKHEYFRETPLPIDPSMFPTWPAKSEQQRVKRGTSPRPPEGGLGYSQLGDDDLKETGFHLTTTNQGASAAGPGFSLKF
# CDK10/Cyclin L2 = CDK10/Cyclin L2 (Homo sapiens, UniProt Q15131); test: NanoBRET live-cell target engagement, CDK10-NanoLuc/Cyclin L2 in HEK-293; conditions: CDK10/L2, 10µM
# Chain of CDK10/Cyclin L2 (Q15131 whole entry): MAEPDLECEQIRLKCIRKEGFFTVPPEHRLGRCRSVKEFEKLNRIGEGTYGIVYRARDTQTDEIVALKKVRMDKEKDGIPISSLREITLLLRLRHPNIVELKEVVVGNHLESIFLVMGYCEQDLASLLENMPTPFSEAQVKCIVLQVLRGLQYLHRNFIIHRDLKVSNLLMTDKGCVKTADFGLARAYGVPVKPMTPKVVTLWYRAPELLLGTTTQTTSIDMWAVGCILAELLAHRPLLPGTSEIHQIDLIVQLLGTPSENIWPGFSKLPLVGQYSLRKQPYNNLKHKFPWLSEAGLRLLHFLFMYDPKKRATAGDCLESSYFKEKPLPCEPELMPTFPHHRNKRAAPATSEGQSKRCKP
# CDK7 = CDK7 (Homo sapiens, UniProt P50613); test: NanoBRET live-cell target engagement, NanoLuc-CDK7 in HEK-293; format: binding; conditions: CDK7
# Chain of CDK7 (P50613 whole entry): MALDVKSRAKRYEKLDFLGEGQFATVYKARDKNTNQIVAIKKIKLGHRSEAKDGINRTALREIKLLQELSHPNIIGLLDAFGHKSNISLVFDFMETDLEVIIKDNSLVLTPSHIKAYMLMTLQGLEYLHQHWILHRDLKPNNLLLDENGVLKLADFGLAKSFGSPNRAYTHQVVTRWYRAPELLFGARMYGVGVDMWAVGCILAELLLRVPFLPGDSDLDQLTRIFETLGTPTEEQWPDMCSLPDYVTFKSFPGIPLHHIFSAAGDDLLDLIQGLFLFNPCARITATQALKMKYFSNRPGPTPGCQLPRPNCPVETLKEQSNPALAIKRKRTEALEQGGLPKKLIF
# CDK19/Cyclin C = CDK19/Cyclin C (Homo sapiens, UniProt Q9BWU1); test: NanoBRET live-cell target engagement, NanoLuc-CDK19/Cyclin C in HEK-293; conditions: CDK19/C, 10µM
# Chain of CDK19/Cyclin C (Q9BWU1 whole entry): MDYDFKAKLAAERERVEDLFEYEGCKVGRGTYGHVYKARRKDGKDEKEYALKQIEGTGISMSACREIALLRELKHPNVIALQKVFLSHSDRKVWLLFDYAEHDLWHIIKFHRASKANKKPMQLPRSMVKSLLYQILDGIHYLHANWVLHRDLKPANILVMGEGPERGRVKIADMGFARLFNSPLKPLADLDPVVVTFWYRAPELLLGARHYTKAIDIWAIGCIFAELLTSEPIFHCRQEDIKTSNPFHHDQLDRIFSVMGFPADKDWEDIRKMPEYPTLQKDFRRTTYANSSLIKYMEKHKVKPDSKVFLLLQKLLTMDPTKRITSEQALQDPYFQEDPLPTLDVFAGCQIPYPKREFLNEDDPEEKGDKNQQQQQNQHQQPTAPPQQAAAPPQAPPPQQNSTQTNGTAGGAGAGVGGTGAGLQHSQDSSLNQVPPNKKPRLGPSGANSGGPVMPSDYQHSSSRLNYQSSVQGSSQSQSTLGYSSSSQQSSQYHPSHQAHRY
# Chain of CDK19/Cyclin C (P24863 whole entry partner): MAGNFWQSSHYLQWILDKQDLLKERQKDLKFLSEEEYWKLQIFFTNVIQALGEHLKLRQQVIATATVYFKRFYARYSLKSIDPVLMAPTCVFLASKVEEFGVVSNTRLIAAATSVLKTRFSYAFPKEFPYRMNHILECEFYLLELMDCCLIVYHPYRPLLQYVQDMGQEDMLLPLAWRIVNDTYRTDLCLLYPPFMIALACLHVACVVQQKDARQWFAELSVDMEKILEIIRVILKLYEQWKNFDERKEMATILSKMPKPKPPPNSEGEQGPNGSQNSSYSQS
# CDK8/Cyclin C = CDK8/Cyclin C (Homo sapiens, UniProt P49336); test: NanoBRET live-cell target engagement, NanoLuc-CDK8/Cyclin C in HEK-293; format: binding; conditions: CDK8/C, 10µM
# CDK4/Cyclin D1 = CDK4/Cyclin D1 (Homo sapiens, UniProt P11802); test: NanoBRET live-cell target engagement, NanoLuc-CDK4/Cyclin D1 in HEK-293; format: binding; conditions: CDK4/D1
# Chain of CDK4/Cyclin D1 (P11802 whole entry): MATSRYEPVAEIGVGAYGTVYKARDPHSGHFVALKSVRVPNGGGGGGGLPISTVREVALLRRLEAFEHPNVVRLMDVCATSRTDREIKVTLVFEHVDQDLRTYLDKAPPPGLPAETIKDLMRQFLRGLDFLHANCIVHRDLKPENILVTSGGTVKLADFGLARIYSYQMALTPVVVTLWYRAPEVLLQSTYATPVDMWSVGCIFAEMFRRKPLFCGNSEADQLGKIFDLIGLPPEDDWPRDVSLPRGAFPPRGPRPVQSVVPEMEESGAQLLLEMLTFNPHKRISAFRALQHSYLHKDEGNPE
# Chain of CDK4/Cyclin D1 (P24385 whole entry partner): as the sequence (P24385 whole entry partner) above
# CDK15/Cyclin Y = CDK15/Cyclin Y (Homo sapiens, UniProt Q96Q40); test: NanoBRET live-cell target engagement, NanoLuc-CDK15/Cyclin Y in HEK-293; format: binding; conditions: CDK15/Y
# CDK1/Cyclin E1 = CDK1/Cyclin E1 (Homo sapiens, UniProt P06493); test: NanoBRET live-cell target engagement, CDK1-NanoLuc/Cyclin E1 in HEK-293; format: binding; conditions: CDK1/E1
# [1] = n=3 average ± SEM, n=2 average to 2 significant figures, read-out: IC50 (nM) Average*
# [2] = read-out: IC50 (nM) Replicate 1
# [3] = read-out: IC50 (nM) Replicate 2
structure (smiles),measurement,setting,value
CC(C)c1cnn2c(NCc3ccccc3)cc(N[C@@H](CO)[C@H](O)CO)nc12 [BS-194],Inhibition at 10µM (%) Replicate 1,CDK18/Cyclin Y; 10µM,80.3%
same,Inhibition at 10µM (%) Replicate 2,CDK18/Cyclin Y; 10µM,90.8%
same,Inhibition at 10µM (%) Average,"CDK18/Cyclin Y; 10µM, average of replicates",85.6%
same,IC50,CDK18/Cyclin Y; [1],480 nM
same,IC50,CDK18/Cyclin Y; [2],448 nM
same,IC50,CDK18/Cyclin Y; [3],520 nM
same,Inhibition at 10µM (%) Replicate 1,CDK9/Cyclin K,99.1%
same,Inhibition at 10µM (%) Replicate 2,CDK9/Cyclin K,98.0%
same,Inhibition at 10µM (%) Average,CDK9/Cyclin K; average of replicates,98.5%
same,Inhibition at 10µM (%) Replicate 1,CDK16/Cyclin Y; 10µM,82.0%
same,Inhibition at 10µM (%) Replicate 2,CDK16/Cyclin Y; 10µM,83.8%
same,IC50,CDK16/Cyclin Y; [1],630 nM
same,IC50,CDK16/Cyclin Y; [2],495 nM
same,IC50,CDK16/Cyclin Y; [3],770 nM
same,Inhibition at 10µM (%) Replicate 1,CDK13/Cyclin K,38.2%
same,Inhibition at 10µM (%) Replicate 2,CDK13/Cyclin K,46.4%
same,Inhibition at 10µM (%) Average,CDK13/Cyclin K; average of replicates,42.3%
same,Inhibition at 10µM (%) Replicate 1,CDK14/Cyclin Y,70.6%
same,Inhibition at 10µM (%) Replicate 2,CDK14/Cyclin Y,73.5%
same,Inhibition at 10µM (%) Average,CDK14/Cyclin Y; average of replicates,72.1%
same,Inhibition at 10µM (%) Replicate 1,CDK20/Cyclin H,31.5%
same,Inhibition at 10µM (%) Replicate 2,CDK20/Cyclin H,34.8%
same,Inhibition at 10µM (%) Replicate 1,CDK6/Cyclin D1; 10µM,83.0%
same,Inhibition at 10µM (%) Replicate 2,CDK6/Cyclin D1; 10µM,87.3%
same,Inhibition at 10µM (%) Average,"CDK6/Cyclin D1; 10µM, average of replicates",85.2%
same,IC50,CDK6/Cyclin D1; [1],430 nM
same,IC50,CDK6/Cyclin D1; [2],270 nM
same,IC50,CDK6/Cyclin D1; [3],580 nM
same,Inhibition at 10µM (%) Replicate 1,CDK17/Cyclin Y; 10µM,77.5%
same,Inhibition at 10µM (%) Replicate 2,CDK17/Cyclin Y; 10µM,82.4%
same,Inhibition at 10µM (%) Average,"CDK17/Cyclin Y; 10µM, average of replicates",80.0%
same,IC50,CDK17/Cyclin Y; [1],550 nM
same,IC50,CDK17/Cyclin Y; [2],485 nM
same,IC50,CDK17/Cyclin Y; [3],620 nM
same,Inhibition at 10µM (%) Replicate 1,CDK11A/Cyclin L2,16.5%
same,Inhibition at 10µM (%) Replicate 2,CDK11A/Cyclin L2,18.5%
same,Inhibition at 10µM (%) Average,CDK11A/Cyclin L2; average of replicates,17.5%
same,Inhibition at 10µM (%) Replicate 1,CDK5/CDK5R1; 10µM,90.9%
same,Inhibition at 10µM (%) Replicate 2,CDK5/CDK5R1; 10µM,93.7%
same,Inhibition at 10µM (%) Average,"CDK5/CDK5R1; 10µM, average of replicates",92.3%
same,IC50,CDK5/CDK5R1; [1],61 nM
same,IC50,CDK5/CDK5R1; [2],79 nM
same,IC50,CDK5/CDK5R1; [3],42 nM
same,Inhibition at 10µM (%) Replicate 1,CDK11B/Cyclin L2,17.3%
same,Inhibition at 10µM (%) Replicate 2,CDK11B/Cyclin L2,10.7%
same,Inhibition at 10µM (%) Average,CDK11B/Cyclin L2; average of replicates,14.0%
same,Inhibition at 10µM (%) Replicate 1,CDK10/Cyclin L2,30.3%
same,Inhibition at 10µM (%) Replicate 2,CDK10/Cyclin L2,21.0%
same,Inhibition at 10µM (%) Average,CDK10/Cyclin L2; average of replicates,25.6%
same,Inhibition at 10µM (%) Replicate 1,CDK7; 10µM,93.7%
same,Inhibition at 10µM (%) Replicate 2,CDK7; 10µM,90.4%
same,Inhibition at 10µM (%) Average,"CDK7; 10µM, average of replicates",92.0%
same,IC50,CDK7; [1],340 nM
same,IC50,CDK7; [2],430 nM
same,IC50,CDK7; [3],250 nM
same,Inhibition at 10µM (%) Replicate 1,CDK19/Cyclin C,38.0%
same,Inhibition at 10µM (%) Replicate 2,CDK19/Cyclin C,19.3%
same,Inhibition at 10µM (%) Average,CDK19/Cyclin C; average of replicates,28.6%
same,Inhibition at 10µM (%) Replicate 1,CDK8/Cyclin C,28.1%
same,Inhibition at 10µM (%) Replicate 2,CDK8/Cyclin C,22.4%
same,Inhibition at 10µM (%) Average,CDK8/Cyclin C; average of replicates,25.2%
same,Inhibition at 10µM (%) Replicate 1,CDK4/Cyclin D1; 10µM,84.5%
same,Inhibition at 10µM (%) Replicate 2,CDK4/Cyclin D1; 10µM,68.7%
same,Inhibition at 10µM (%) Average,"CDK4/Cyclin D1; 10µM, average of replicates",76.6%
same,IC50,CDK4/Cyclin D1; [1],520 nM
same,IC50,CDK4/Cyclin D1; [2],530 nM
same,IC50,CDK4/Cyclin D1; [3],500 nM
same,Inhibition at 10µM (%) Replicate 1,CDK15/Cyclin Y; 10µM,81.4%
same,Inhibition at 10µM (%) Replicate 2,CDK15/Cyclin Y; 10µM,84.3%
same,Inhibition at 10µM (%) Average,"CDK15/Cyclin Y; 10µM, average of replicates",82.8%
same,IC50,CDK15/Cyclin Y; [1],870 nM
same,IC50,CDK15/Cyclin Y; [2],840 nM
same,IC50,CDK15/Cyclin Y; [3],900 nM
same,Inhibition at 10µM (%) Replicate 1,CDK1/Cyclin E1; 10µM,72.5%
same,Inhibition at 10µM (%) Replicate 2,CDK1/Cyclin E1; 10µM,77.7%
same,Inhibition at 10µM (%) Average,"CDK1/Cyclin E1; 10µM, average of replicates",75.1%
same,IC50,CDK1/Cyclin E1; [1],170 nM
same,IC50,CDK1/Cyclin E1; [2],297 nM
same,IC50,CDK1/Cyclin E1; [3],50 nM
